Assay results as given in ChEMBL document CHEMBL5725536, “Multiple kinase pathway inhibitors” (2017).

Key:
[1] = target: Proto-oncogene tyrosine-protein kinase Src (Homo sapiens, UniProt P12931); assay: (§1) Kinase Assays: A concentration of a drug that reduces the observed activity of an enzyme by 50%. An IC50 is not a true affinity constant and the specific value determined can vary depending on the particular assay used. Nonetheless the rank order of IC50 for a set of compounds will typically be similar from one assay to another. (The true affinity constant for an inhibitor binding to an enzyme, Ki, can of course also be used for the same purposes as described herein for IC50). With respect to the kinases that are targeted by the compounds disclosed herein, kinase activity can be assayed, without limitation, as consumption of ATP or as incorporation of phosphate into a substrate. For example, the assay used in Example 76 assesses consumption of ATP based on luminescent detection of ADP. As an alternate example, the assay used in Example 78 assesses incorporation of phosphate based on the radiologic detection of 33P-labeled artificial substrates. Myriad other kinase assays are known in the art many of which are commercially available either as a kit or a service and one of skill in the art will recognize their particular usefulness for generating IC50 data.
[2] = target: Tyrosine-protein kinase Lyn (Homo sapiens, UniProt P07948); assay: as §1
Sequence of Tyrosine-protein kinase Lyn (P07948 whole entry): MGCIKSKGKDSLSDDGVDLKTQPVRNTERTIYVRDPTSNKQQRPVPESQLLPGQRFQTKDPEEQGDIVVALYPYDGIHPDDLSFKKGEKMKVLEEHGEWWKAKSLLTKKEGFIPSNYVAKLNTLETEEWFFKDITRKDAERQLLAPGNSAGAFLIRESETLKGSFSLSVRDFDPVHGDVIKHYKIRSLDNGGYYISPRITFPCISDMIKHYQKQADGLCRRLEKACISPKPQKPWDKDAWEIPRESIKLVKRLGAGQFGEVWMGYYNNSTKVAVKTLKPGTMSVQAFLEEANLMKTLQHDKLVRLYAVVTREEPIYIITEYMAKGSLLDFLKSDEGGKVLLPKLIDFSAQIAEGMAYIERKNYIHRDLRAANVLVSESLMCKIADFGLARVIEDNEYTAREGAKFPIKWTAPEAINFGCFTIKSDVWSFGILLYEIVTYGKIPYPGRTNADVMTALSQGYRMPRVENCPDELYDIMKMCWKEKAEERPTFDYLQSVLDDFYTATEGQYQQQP

Sequence of Proto-oncogene tyrosine-protein kinase Src (P12931 2-536 limits assumed): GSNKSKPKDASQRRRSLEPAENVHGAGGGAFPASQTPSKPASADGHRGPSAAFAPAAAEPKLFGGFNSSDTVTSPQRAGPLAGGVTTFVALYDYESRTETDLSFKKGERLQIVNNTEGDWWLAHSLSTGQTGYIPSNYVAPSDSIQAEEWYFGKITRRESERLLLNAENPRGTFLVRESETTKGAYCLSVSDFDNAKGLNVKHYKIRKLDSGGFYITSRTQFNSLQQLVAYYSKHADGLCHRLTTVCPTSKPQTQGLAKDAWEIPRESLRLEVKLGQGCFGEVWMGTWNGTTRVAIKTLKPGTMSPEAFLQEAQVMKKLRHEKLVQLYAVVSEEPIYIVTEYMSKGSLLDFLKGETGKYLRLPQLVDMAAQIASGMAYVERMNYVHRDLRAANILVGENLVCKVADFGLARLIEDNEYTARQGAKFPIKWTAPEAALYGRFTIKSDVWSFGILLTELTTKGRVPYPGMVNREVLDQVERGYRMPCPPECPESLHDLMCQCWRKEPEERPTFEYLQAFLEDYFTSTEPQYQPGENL

Structure (SMILES) | IC50 [1] | IC50 [2]
CC(C)n1c(=O)c(-c2c(F)cccc2F)cc2cnc(Nc3ccc(F)cn3)cc21 | > 5 µM | > 5 µM
CCN(CC)CCOc1ccc(Nc2cc3c(cn2)cc(C(C)C)c(=O)n3C)nc1 | – | > 5 µM
